Values after ≈ are worked out from the molar mass of the structure shown. Active and inactive are the calls of the source. The calls are words filed in the database; no cut-off is given here. Square brackets hold non-standard residues; d marks the D form. Peptide text beside a SMILES is read from it. Dab = NCC[C@H](N)C(=O)O
Columns and labels:
Staphylococcus aureus [1] = experiment: Antibacterial activity against Staphylococcus aureus ATCC 6538p assessed as inhibition of bacterial growth incubated for 18 to 24 hrs; format: functional; conditions: time 18-24 hrs
Staphylococcus aureus [2] = experiment: Bactericidal activity against Staphylococcus aureus ATCC 6538p assessed as inhibition of bacterial growth incubated for 18 to 24 hrs; format: functional; conditions: time 18-24 hrs
Staphylococcus aureus [3] = experiment: Antibacterial activity against Staphylococcus aureus ATCC 12600 assessed as inhibition of bacterial growth incubated for 18 to 24 hrs; format: functional; conditions: time 18-24 hrs
Staphylococcus aureus [4] = experiment: Bactericidal activity against Staphylococcus aureus ATCC 12600 assessed as inhibition of bacterial growth incubated for 18 to 24 hrs; format: functional; conditions: time 18-24 hrs
Staphylococcus aureus [5] = experiment: Antibacterial activity against Staphylococcus aureus ATCC 43300 assessed as inhibition of bacterial growth incubated for 18 to 24 hrs; format: functional; conditions: time 18-24 hrs
Staphylococcus aureus [6] = experiment: Bactericidal activity against Staphylococcus aureus ATCC 43300 assessed as inhibition of bacterial growth incubated for 18 to 24 hrs; format: functional; conditions: time 18-24 hrs
[7] = test system: Staphylococcus epidermidis; experiment: Antibacterial activity against Staphylococcus epidermidis ATCC 12228 assessed as inhibition of bacterial growth incubated for 18 to 24 hrs; format: functional; conditions: time 18-24 hrs
[8] = test system: Staphylococcus epidermidis; experiment: Bactericidal activity against Staphylococcus epidermidis ATCC 12228 assessed as inhibition of bacterial growth incubated for 18 to 24 hrs; format: functional; conditions: time 18-24 hrs
Streptococcus pneumoniae [9] = experiment: Antibacterial activity against Streptococcus pneumoniae ATCC 49619 assessed as inhibition of bacterial growth incubated for 18 to 24 hrs; format: functional; conditions: time 18-24 hrs
Streptococcus pneumoniae [10] = experiment: Bactericidal activity against Streptococcus pneumoniae ATCC 49619 assessed as inhibition of bacterial growth incubated for 18 to 24 hrs; format: functional; conditions: time 18-24 hrs
[11] = test system: Staphylococcus saprophyticus; experiment: Antibacterial activity against Staphylococcus saprophyticus ATCC BAA-750 assessed as inhibition of bacterial growth incubated for 18 to 24 hrs; format: functional; conditions: time 18-24 hrs
[12] = test system: Staphylococcus saprophyticus; experiment: Bactericidal activity against Staphylococcus saprophyticus ATCC BAA-750 assessed as inhibition of bacterial growth incubated for 18 to 24 hrs; format: functional; conditions: time 18-24 hrs
Streptococcus mutans [13] = experiment: Antibacterial activity against Streptococcus mutans UA159 assessed as inhibition of bacterial growth incubated for 18 to 24 hrs; format: functional; conditions: time 18-24 hrs
Streptococcus mutans [14] = experiment: Bactericidal activity against Streptococcus mutans UA159 assessed as inhibition of bacterial growth incubated for 18 to 24 hrs; format: functional; conditions: time 18-24 hrs
Streptococcus mutans [15] = experiment: Antibacterial activity against Streptococcus mutans ATCC 25175 assessed as inhibition of bacterial growth incubated for 18 to 24 hrs; format: functional; conditions: time 18-24 hrs
Streptococcus mutans [16] = experiment: Bactericidal activity against Streptococcus mutans ATCC 25175 assessed as inhibition of bacterial growth incubated for 18 to 24 hrs; format: functional; conditions: time 18-24 hrs
Escherichia coli [17] = experiment: Antibacterial activity against Escherichia coli ATCC 25922 assessed as inhibition of bacterial growth incubated for 18 to 24 hrs; format: functional; conditions: time 18-24 hrs
Escherichia coli [18] = experiment: Bactericidal activity against Escherichia coli ATCC 25922 assessed as inhibition of bacterial growth incubated for 18 to 24 hrs; format: functional; conditions: time 18-24 hrs
[19] = Binding affinity to AgrC-I extra-loop-I (unknown origin) assessed as dissociation constant incubated for 10 mins by isothermal titration calorimetry analysis
[20] = Binding affinity to AgrC-I extra-loop-II (unknown origin) assessed as dissociation constant incubated for 10 mins by isothermal titration calorimetry analysis
[21] = Binding affinity to AgrC-I extra-loop-III (unknown origin) assessed as dissociation constant incubated for 10 mins by isothermal titration calorimetry analysis
[22] = Binding affinity to AgrC-I extra-loop-I (unknown origin) assessed as change in enthalpy incubated for 10 mins by isothermal titration calorimetry analysis
[23] = Binding affinity to AgrC-I extra-loop-II (unknown origin) assessed as change in enthalpy incubated for 10 mins by isothermal titration calorimetry analysis
[24] = Binding affinity to AgrC-I extra-loop-III (unknown origin) assessed as change in enthalpy incubated for 10 mins by isothermal titration calorimetry analysis
Homo sapiens [25] = species on record: Homo sapiens; experiment: Binding affinity to AgrC-I extra-loop-I (unknown origin) assessed as gibbs free energy change incubated for 10 mins by isothermal titration calorimetry analysis
Homo sapiens [26] = species on record: Homo sapiens; experiment: Binding affinity to AgrC-I extra-loop-II (unknown origin) assessed as gibbs free energy change incubated for 10 mins by isothermal titration calorimetry analysis
Homo sapiens [27] = species on record: Homo sapiens; experiment: Binding affinity to AgrC-I extra-loop-III (unknown origin) assessed as gibbs free energy change incubated for 10 mins by isothermal titration calorimetry analysis
Homo sapiens [28] = species on record: Homo sapiens; experiment: Binding affinity to AgrC-I extra-loop-I (unknown origin) assessed as change in entropy incubated for 10 mins by isothermal titration calorimetry analysis
Homo sapiens [29] = species on record: Homo sapiens; experiment: Binding affinity to AgrC-I extra-loop-II (unknown origin) assessed as change in entropy incubated for 10 mins by isothermal titration calorimetry analysis
Homo sapiens [30] = species on record: Homo sapiens; experiment: Binding affinity to AgrC-I extra-loop-III (unknown origin) assessed as change in entropy incubated for 10 mins by isothermal titration calorimetry analysis
Staphylococcus aureus [31] = experiment: Inhibition of biofilm formation in Staphylococcus aureus at 0.78 to 1.56 uM incubated for 24 hrs by crystal violet staining based analysis; format: functional, organism-based; conditions: dose 0.78-1.56 µM
RAW264.7 [32] = experiment: Cytotoxicity against mouse RAW264.7 cells assessed as cell viability incubated for 48 hrs by MTT assay; format: functional
RAW264.7 [33] = experiment: Cytotoxicity against mouse RAW264.7 cells assessed as cell viability upto 125 uM incubated for 48 hrs by MTT assay; format: functional, cell-based
Staphylococcus aureus [34] = experiment: Antivirulence activity against Staphylococcus aureus assessed as downregulation of RNAIII expression level at 1 to 100 uM incubated for 24 hrs by qRT-PCR analysis; format: functional, organism-based; conditions: dose 1-100 µM
Staphylococcus aureus [35] = experiment: Antivirulence activity against Staphylococcus aureus assessed as downregulation of hla expression level at 1 to 100 uM incubated for 24 hrs by qRT-PCR analysis; format: functional, organism-based; conditions: dose 1-100 µM
Staphylococcus aureus [36] = experiment: Antivirulence activity against Staphylococcus aureus assessed as downregulation of psm-alpha expression level at 1 to 100 uM incubated for 24 hrs by qRT-PCR analysis; format: functional, organism-based; conditions: dose 1-100 µM
Erythrocyte = experiment: Hemolytic activity in rat RBC assessed as hemolysis measured after 20 hrs; format: toxicity, cell-based
Staphylococcus aureus [37] = experiment: Inhibition of biofilm formation in Staphylococcus aureus incubated for 24 hrs by crystal violet staining based microscopic analysis; format: functional, organism-based
Cell membrane [38] = experiment: Induction of cell membrane damage in Staphylococcus aureus ATCC 6538p assessed as increase in nucleic acid leakage measured up to 30 mins by UV-spectrophotometer analysis; format: subcellular
Cell membrane [39] = experiment: Induction of cell membrane damage in Staphylococcus aureus ATCC 6538p assessed as increase in fluorescent intensity incubated for 30 mins by PI staining based flow cytometry assay

MIC (Staphylococcus aureus [1]) | MIC (Staphylococcus aureus [3]) | MIC (Staphylococcus aureus [5]) | MIC [7] | MIC (Streptococcus pneumoniae [9]) | MIC [11] | MIC (Streptococcus mutans [13]) | MIC (Streptococcus mutans [15]) | MIC (Escherichia coli [17]) | Compound | MBC (Staphylococcus aureus [2]) | MBC (Staphylococcus aureus [4]) | MBC (Staphylococcus aureus [6]) | MBC [8] | MBC (Streptococcus pneumoniae [10]) | MBC [12] | MBC (Streptococcus mutans [14]) | MBC (Streptococcus mutans [16]) | MBC (Escherichia coli [18]) | Kd [19] | Kd [20] | also measured
3.13 µM (≈ 8.47 µg/mL) | 3.13 µM (≈ 8.47 µg/mL) | 6.25 µM (≈ 16.9 µg/mL) | 1.56 µM (≈ 4.22 µg/mL) | 6.25 µM (≈ 16.9 µg/mL) | 3.13 µM (≈ 8.47 µg/mL) | 6.25 µM (≈ 16.9 µg/mL) | 6.25 µM (≈ 16.9 µg/mL) | 3.13 µM (≈ 8.47 µg/mL) | CC[C@H](C)[C@H](N)C(=O)N[C@@H](CC(N)=O)C(=O)N[C@@H](CCN)C(=O)N[C@@H](C)C(=O)N[C@@H](Cc1ccccc1)C(=O)N[C@@H](CC(C)C)C(=O)N[C@@H](CC(C)C)C(=O)NCC(=O)NCC(=O)NCC(=O)N[C@H](C(=O)N[C@@H](CCCCN)C(=O)N[C@@H](CC(N)=O)C(=O)N[C@@H](CC(C)C)C(=O)N[C@@H](Cc1c[nH]c2ccccc12)C(=O)N[C@@H](CCCCN)C(=O)N[C@@H](CCCCN)C(=O)N[C@@H](CCSC)C(=O)N[C@H](C(=O)N[C@@H](CCCCN)C(=O)N[C@@H](CC(C)C)C(=O)N[C@@H](Cc1c[nH]c2ccccc12)C(=O)N[C@@H](Cc1ccc(O)cc1)C(=O)O)[C@@H](C)CC)[C@@H](C)CC (H-IN[Dab]AFLLGGGIKNLWKKMIKLWY-OH) | 6.25 µM (≈ 16.9 µg/mL) | 6.25 µM (≈ 16.9 µg/mL) | 12.5 µM (≈ 33.8 µg/mL) | 3.13 µM (≈ 8.47 µg/mL) | 12.5 µM (≈ 33.8 µg/mL) | 3.13 µM (≈ 8.47 µg/mL) | 12.5 µM (≈ 33.8 µg/mL) | 6.25 µM (≈ 16.9 µg/mL) | 6.25 µM (≈ 16.9 µg/mL) | 2.05 nM | 3.78 mM | Kd [21]: 139 nM; deltaH [22]: 9.06 kcal/mol; deltaH [23]: -15.6 kcal/mol; deltaH [24]: -80 kcal/mol; deltaG (Homo sapiens [25]): -11.8 kcal/mol; deltaG (Homo sapiens [26]): -3.31 kcal/mol; deltaG (Homo sapiens [27]): -9.36 kcal/mol; -TdeltaS (Homo sapiens [28]): -20.9 kcal/mol; -TdeltaS (Homo sapiens [29]): 12.3 kcal/mol; -TdeltaS (Homo sapiens [30]): 70.6 kcal/mol; inhibition (Staphylococcus aureus [31]): Active
6.25 µM | 6.25 µM | 6.25 µM | 3.13 µM | 12.5 µM | 6.25 µM | 6.25 µM | 6.25 µM | 6.25 µM | H-IKNAWKAMIKAWY-OH | 6.25 µM | 6.25 µM | 12.5 µM | 3.13 µM | 12.5 µM | 12.5 µM | 25 µM | 12.5 µM | 6.25 µM |  |  | CC50 (RAW264.7 [32]): > 125 µM; Activity (RAW264.7 [33]): inactive

Compound | MIC (Staphylococcus aureus [1]) | MIC (Staphylococcus aureus [3]) | MIC (Staphylococcus aureus [5]) | MIC [7] | MIC (Streptococcus pneumoniae [9]) | MIC [11] | MIC (Streptococcus mutans [13]) | MIC (Streptococcus mutans [15]) | MIC (Escherichia coli [17]) | MBC (Staphylococcus aureus [2]) | MBC (Staphylococcus aureus [4]) | MBC (Staphylococcus aureus [6]) | MBC [8] | MBC (Streptococcus pneumoniae [10]) | MBC [12] | MBC (Streptococcus mutans [14]) | MBC (Streptococcus mutans [16]) | MBC (Escherichia coli [18]) | Kd [19] | Kd [20] | also measured
H-IKNLWKKMIKLWY-OH | 3.13 µM | 3.13 µM | 6.25 µM | 1.56 µM | 6.25 µM | 3.13 µM | 6.25 µM | 3.13 µM | 3.13 µM | 3.13 µM | 6.25 µM | 6.25 µM | 3.13 µM | 12.5 µM | 6.25 µM | 12.5 µM | 12.5 µM | 3.13 µM | 0.001 nM | 1e-09 mM | CC50 (RAW264.7 [32]): > 125 µM; Activity (RAW264.7 [33]): inactive; Kd [21]: 0.001 nM; deltaH [22]: inactive; deltaH [23]: -44.2 kcal/mol; deltaH [24]: -0.775 kcal/mol; deltaG (Homo sapiens [25]): -16.4 kcal/mol; deltaG (Homo sapiens [26]): -16.4 kcal/mol; deltaG (Homo sapiens [27]): -16.4 kcal/mol; -TdeltaS (Homo sapiens [28]): -16.3 kcal/mol; -TdeltaS (Homo sapiens [29]): 27.9 kcal/mol; -TdeltaS (Homo sapiens [30]): -15.6 kcal/mol; Activity (Staphylococcus aureus [34]): inactive; Activity (Staphylococcus aureus [35]): inactive; Activity (Staphylococcus aureus [36]): inactive; Activity (Erythrocyte): Non-Toxic; inhibition (Staphylococcus aureus [37]): Active; Activity (Cell membrane [38]): Active; Activity (Cell membrane [39]): Active

Source: ChEMBL document CHEMBL5376002, “A Hybrid Antimicrobial Peptide Targeting Staphylococcus aureus with a Dual Function of Inhibiting Quorum Sensing Signaling and an Antibacterial Effect” (J Med Chem, 2023)
